This note sets out measurements from PubChem BioAssay AID1259407 (Chemical Carcinogenesis Research Information System (CCRIS), 2018).

In the data set the test system is CCRIS mutagenicity, Ames/micronucleus/aberration tests. Put plainly: CCRIS mutagenicity studies.
Setting [1] is: Test System: AMES SALMONELLA TYPHIMURIUM, Strain/Indicator: TA1535, Metabolic Activation: NONE, Method: STANDARD PLATE.
[2] abbreviates: Test System: AMES SALMONELLA TYPHIMURIUM, Strain/Indicator: TA98, Metabolic Activation: NONE, Method: PREINCUBATION
Where [3] appears, read: Test System: AMES SALMONELLA TYPHIMURIUM, Strain/Indicator: TA100, Metabolic Activation: NONE, Method: STANDARD PLATE.

Activity calls are given as the source filed them. The rule behind the calls is not given here.

Turning to `CN(Cc1ccc(Cl)cc1)N=O`, the mutagenic call (Test System: AMES SALMONELLA TYPHIMURIUM, Strain/Indicator: TA1535, Metabolic Activation: HAMSTER, LIVER, S-9, AROCLOR 1254, Method: STANDARD PLATE) was “active; positive” and the mutagenic call under setting [1] was “inactive; negative”.

As for `O=c1[nH]c(=O)n([C@H]2C[C@H](O)[C@@H](CO)O2)cc1CCCl`, the mutagenic call (End Point: IN VITRO MICRONUCLEUS, Test System: V79 CHINESE HAMSTER CELLS, Metabolic Activation: NONE) is “inactive; negative”; the mutagenic call (End Point: IN VITRO MICRONUCLEUS, Test System: V79 CHINESE HAMSTER CELLS, Metabolic Activation: RAT, LIVER, S-9, AROCLOR 1254) was “inactive; negative”; the mutagenic call (End Point: IN VIVO MICRONUCLEUS, Test System: BONE MARROW POLYCHROMATIC ERYTHROCYTES, Species: MOUSE, Strain/Sex: CD-1/MALE, FEMALE, Route: GAVAGE) was “inactive; negative”; the mutagenic call (Test System: AMES SALMONELLA TYPHIMURIUM, Strain/Indicator: TA97, Metabolic Activation: NONE, Method: PREINCUBATION) is “inactive; negative”; the mutagenic call (Test System: AMES SALMONELLA TYPHIMURIUM, Strain/Indicator: TA97, Metabolic Activation: RAT, LIVER, S-9, AROCLOR 1254, Method: PREINCUBATION) is “inactive; negative”; the mutagenic call under setting [2] was “inactive; negative”. For the same compound, the mutagenic call reads like this: (Test System: AMES SALMONELLA TYPHIMURIUM, Strain/Indicator: TA98, Metabolic Activation: NONE, Method: STANDARD PLATE) “inactive; negative”; (Test System: AMES SALMONELLA TYPHIMURIUM, Strain/Indicator: TA98, Metabolic Activation: RAT, LIVER, S-9, AROCLOR 1254, Method: PREINCUBATION) “inactive; negative”; (Test System: AMES SALMONELLA TYPHIMURIUM, Strain/Indicator: TA98, Metabolic Activation: RAT, LIVER, S-9, AROCLOR 1254, Method: STANDARD PLATE) “inactive; negative”; (Test System: AMES SALMONELLA TYPHIMURIUM, Strain/Indicator: TA100, Metabolic Activation: NONE, Method: PREINCUBATION) “inactive; negative”; under setting [3], “inactive; negative”; (Test System: AMES SALMONELLA TYPHIMURIUM, Strain/Indicator: TA100, Metabolic Activation: RAT, LIVER, S-9, AROCLOR 1254, Method: PREINCUBATION) “inactive; negative”. For the same compound, the mutagenic call is “inactive; negative” (Test System: AMES SALMONELLA TYPHIMURIUM, Strain/Indicator: TA100, Metabolic Activation: RAT, LIVER, S-9, AROCLOR 1254, Method: STANDARD PLATE); “inactive; negative” (Test System: AMES SALMONELLA TYPHIMURIUM, Strain/Indicator: TA102, Metabolic Activation: NONE, Method: PREINCUBATION); “active; positive” (Test System: AMES SALMONELLA TYPHIMURIUM, Strain/Indicator: TA102, Metabolic Activation: NONE, Method: STANDARD PLATE); “inactive; negative” (Test System: AMES SALMONELLA TYPHIMURIUM, Strain/Indicator: TA102, Metabolic Activation: RAT, LIVER, S-9, AROCLOR 1254, Method: PREINCUBATION); “active; positive” (Test System: AMES SALMONELLA TYPHIMURIUM, Strain/Indicator: TA102, Metabolic Activation: RAT, LIVER, S-9, AROCLOR 1254, Method: STANDARD PLATE); “inactive; negative” (Test System: AMES SALMONELLA TYPHIMURIUM, Strain/Indicator: TA104, Metabolic Activation: NONE, Method: PREINCUBATION). Moreover, the mutagenic call is “inactive; negative” (Test System: AMES SALMONELLA TYPHIMURIUM, Strain/Indicator: TA104, Metabolic Activation: RAT, LIVER, S-9, AROCLOR 1254, Method: PREINCUBATION); “inactive; negative” (Test System: AMES SALMONELLA TYPHIMURIUM, Strain/Indicator: TA1535, Metabolic Activation: NONE, Method: PREINCUBATION); “active; positive” under setting [1]; “inactive; negative” (Test System: AMES SALMONELLA TYPHIMURIUM, Strain/Indicator: TA1535, Metabolic Activation: RAT, LIVER, S-9, AROCLOR 1254, Method: PREINCUBATION); “active; positive” (Test System: AMES SALMONELLA TYPHIMURIUM, Strain/Indicator: TA1535, Metabolic Activation: RAT, LIVER, S-9, AROCLOR 1254, Method: STANDARD PLATE); “inactive; negative” (Test System: AMES SALMONELLA TYPHIMURIUM, Strain/Indicator: TA1537, Metabolic Activation: NONE, Method: PREINCUBATION). Further, the mutagenic call is “inactive; negative” (Test System: AMES SALMONELLA TYPHIMURIUM, Strain/Indicator: TA1537, Metabolic Activation: NONE, Method: STANDARD PLATE); “inactive; negative” (Test System: AMES SALMONELLA TYPHIMURIUM, Strain/Indicator: TA1537, Metabolic Activation: RAT, LIVER, S-9, AROCLOR 1254, Method: PREINCUBATION); “inactive; negative” (Test System: AMES SALMONELLA TYPHIMURIUM, Strain/Indicator: TA1537, Metabolic Activation: RAT, LIVER, S-9, AROCLOR 1254, Method: STANDARD PLATE); “inactive; negative” (Test System: AMES SALMONELLA TYPHIMURIUM, Strain/Indicator: TA1538, Metabolic Activation: NONE, Method: PREINCUBATION); “inactive; negative” (Test System: AMES SALMONELLA TYPHIMURIUM, Strain/Indicator: TA1538, Metabolic Activation: NONE, Method: STANDARD PLATE); “inactive; negative” (Test System: AMES SALMONELLA TYPHIMURIUM, Strain/Indicator: TA1538, Metabolic Activation: RAT, LIVER, S-9, AROCLOR 1254, Method: PREINCUBATION). The mutagenic call runs as follows: (Test System: AMES SALMONELLA TYPHIMURIUM, Strain/Indicator: TA1538, Metabolic Activation: RAT, LIVER, S-9, AROCLOR 1254, Method: STANDARD PLATE) “inactive; negative”; (Test System: CHINESE HAMSTER V-79, Strain/Indicator: V-79/8-AZAGUANINE, Metabolic Activation: NONE) “active; positive”.

`OCc1ccc(Cl)cc1`: under setting [3], the mutagenic call is “inactive; negative”.

On to `CC(=O)N(O)c1ccc(Oc2ccc(Cl)cc2Cl)cc1`, for which the mutagenic call runs as follows: under setting [3], “inactive; negative”; (Test System: AMES SALMONELLA TYPHIMURIUM, Strain/Indicator: TA100, Metabolic Activation: RAT, LIVER, S-9, KANECLOR 500, Method: STANDARD PLATE) “active; positive”.

`Nc1cccc2nc3cccc(N)c3nc12`: the mutagenic call runs as follows: under setting [2], “inactive; negative”; (Test System: AMES SALMONELLA TYPHIMURIUM, Strain/Indicator: TA98, Metabolic Activation: RAT, LIVER, S-9, PCB, Method: PREINCUBATION) “inactive; negative”.

For `O=C1CCCc2cc([N+](=O)[O-])c3ccccc3c21`, the mutagenic call (Test System: AMES SALMONELLA TYPHIMURIUM, Strain/Indicator: TA98-1,8-DNP6, Metabolic Activation: NONE) is “inactive; negative”; the mutagenic call (Test System: AMES SALMONELLA TYPHIMURIUM, Strain/Indicator: TA98-1,8-DNP6, Metabolic Activation: S-9) is “inactive; negative”; the mutagenic call (Test System: AMES SALMONELLA TYPHIMURIUM, Strain/Indicator: TA98, Metabolic Activation: NONE) was “active; positive”; the mutagenic call (Test System: AMES SALMONELLA TYPHIMURIUM, Strain/Indicator: TA98, Metabolic Activation: S-9) is “active; positive”; the mutagenic call (Test System: AMES SALMONELLA TYPHIMURIUM, Strain/Indicator: TA98NR, Metabolic Activation: NONE) was “inactive; negative”; the mutagenic call (Test System: AMES SALMONELLA TYPHIMURIUM, Strain/Indicator: TA98NR, Metabolic Activation: S-9) was “inactive; negative”. Also, the mutagenic call runs as follows: (Test System: AMES SALMONELLA TYPHIMURIUM, Strain/Indicator: TA100, Metabolic Activation: NONE) “active; positive”; (Test System: AMES SALMONELLA TYPHIMURIUM, Strain/Indicator: TA100, Metabolic Activation: S-9) “active; positive”; (Test System: AMES SALMONELLA TYPHIMURIUM, Strain/Indicator: TA100NR, Metabolic Activation: NONE) “active; positive”; (Test System: AMES SALMONELLA TYPHIMURIUM, Strain/Indicator: TA100NR, Metabolic Activation: S-9) “active; positive”.

Regarding `CCCCN(C)N=O`, the mutagenic call (Test System: AMES SALMONELLA TYPHIMURIUM, Strain/Indicator: TA100, Metabolic Activation: RAT, LIVER, S-9, KC500 OR PHENOBARBITAL, Method: LIQUID SUSPENSION) is “active; positive”.

On to `Nc1nc(=S)c2[nH]cnc2[nH]1`, for which the mutagenic call is “active; positive” (End Point: IN VITRO CHROMOSOMAL ABERRATIONS, Test System: HUMAN HCT116/3-6 CELLS, Metabolic Activation: NONE); “active; positive” (End Point: IN VITRO CHROMOSOMAL ABERRATIONS, Test System: HUMAN HCT116 CELLS, Metabolic Activation: NONE); “active; positive” (End Point: IN VITRO CHROMOSOMAL ABERRATIONS, Test System: HUMAN MT1 CELLS, Metabolic Activation: NONE); “active; positive” (End Point: IN VITRO CHROMOSOMAL ABERRATIONS, Test System: HUMAN TK6 CELLS, Metabolic Activation: NONE).
